This is an account of results in patent US12545659B2, “IRAK degraders and uses thereof” (Kymera Therapeutics, Inc., priority 2019, dated 2026).

Molecules are shown by their SMILES.

One may read the DC50 as the midpoint of the concentration-degradation curve.

In one experiment the target is T1, IRAK4 (Homo sapiens, UniProt Q9NWZ3).
T1 construct: endogenous in cells; host or cells: OCI-LY10
T1 sequence (Q9NWZ3 1-460): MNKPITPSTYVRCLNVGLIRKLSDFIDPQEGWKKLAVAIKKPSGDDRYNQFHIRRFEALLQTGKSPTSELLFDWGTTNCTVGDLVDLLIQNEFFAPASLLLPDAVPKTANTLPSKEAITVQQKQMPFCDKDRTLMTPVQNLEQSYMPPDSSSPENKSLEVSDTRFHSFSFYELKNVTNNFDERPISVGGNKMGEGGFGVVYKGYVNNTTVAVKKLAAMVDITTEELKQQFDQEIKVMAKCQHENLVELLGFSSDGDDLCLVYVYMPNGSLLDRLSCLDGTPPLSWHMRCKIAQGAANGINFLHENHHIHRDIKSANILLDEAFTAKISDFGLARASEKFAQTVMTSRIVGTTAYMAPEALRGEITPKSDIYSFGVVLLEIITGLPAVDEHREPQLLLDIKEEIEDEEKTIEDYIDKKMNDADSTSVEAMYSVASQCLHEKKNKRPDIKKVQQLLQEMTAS
Description: IRAK4 MSD Degradation in OCI-LY10. It is filed as cell-based. As to conditions: OCI-LY10 cells, 4 hrs incubation, read-out: IRAK4 degradation in OCI-LY10 at 4 hrs: DC50. As to the method: Degradation of IRAK4 in OCI-LY10 was quantitatively measured using Meso Scale Discovery technology. […] Compounds were then added to the assay plates with a final top concentration of 1 to 10 μM in a 1:3 dilution series with total of 8 doses. The assay plates were then incubated for 4 to 24 hours at 37° C. under 5% C02. […] To prepare MSD assay plates (Meso Scale Discovery Catalog number L15XA-3), the plates were coated with […] capture antibody (mouse Anti-IRAK4 antibody [2H9], ab119942) in PBS, at 40 μL/well. […] Cell lysates were then added to MSD assay plates and the plates were incubated at room temperature for 1 hour. The plates were then washed 3 times with 150 μL/well TBST buffer and 25 μL/well primary detection antibody (rabbit Anti-IRAK4 antibody [Y279], from Abcam. Catalog number ab32511, 1 μg/mL). The assay plates were then incubated at room temperature for 1 hour, washed 3 times with 150 μL/well TBST buffer and 25 μL/well secondary detection antibody, SULFO-TAG anti-rabbit antibody were added (anti rabbit antibody from Meso Scale Discovery, Catalog number R32AB-1, 1 μg/mL). The assay plates were then incubated at room temperature for 1 hour, washed 3 times with 150 μL/well TBST buffer, and 150 μL/well MSD reading buffer (Meso Scale Discovery catalog number R92TC-2) was added. The plates were then analyzed by a MSD reader (Meso Scale Discovery, Model Quick Plex SQ 120). The data was then analyzed by software Prism 7.0 from GraphPad and the dose-depended IRAK4 degradation were fit using a three-parameter logistic equation to calculate DC50.
The letter codes for IRAK4 […] include: A (<0.05 μM); B (0.05-0.1 μM); C (0.1-0.5 μM); D (0.5-1.0 μM); and E (>1.0 μM).
On to `Cn1c(=O)n(C2CCC(=O)NC2=O)c2cccc(CCC3CCN(C[C@H]4CC[C@H](n5cc6cc(NC(=O)c7cccc(C(F)(F)F)n7)c(C(F)F)cc6n5)CC4)CC3)c21` (stereo partly drawn) [I-94], for which the 50% degradation concentration (DC50) is less than 50 nM.

With `Cn1c(=O)n(C2CCC(=O)NC2=O)c2cccc(C#CCC3CCN(C[C@H]4CC[C@H](n5cc6cc(NC(=O)c7cccc(C(F)(F)F)n7)c(C(F)F)cc6n5)CC4)CC3)c21` (stereo partly drawn) [I-95], the DC50 was in the range of 50 to 100 nM. Turning to `COc1cc2nn([C@H]3CC[C@H](CN4CCN(CCc5cccc6c5n(C)c(=O)n6C5CCC(=O)NC5=O)CC4)CC3)cc2cc1NC(=O)c1cccc(C(F)(F)F)n1` (stereo partly drawn) [I-96], the DC50 was less than 50 nM. For `Cn1c(=O)n(C2CCC(=O)NC2=O)c2cccc(CCN3C[C@H]4CC[C@@H](C3)N4CC[C@H]3CC[C@H](n4cc5cc(NC(=O)c6cccc(C(F)(F)F)n6)c(C(C)(C)O)cc5n4)CC3)c21` (stereo partly drawn) [I-97], the 50% degradation concentration (DC50) was less than 50 nM.

For `COc1cc2nn([C@H]3CC[C@H](CN4CC(c5ccc6c(c5)n(C)c(=O)n6C5CCC(=O)NC5=O)C4)CC3)cc2cc1NC(=O)c1cccc(C(C)(C)F)n1` (stereo partly drawn) [I-98], the 50% degradation concentration (DC50) was less than 50 nM. Same read-out and setting: the same measure for `Cn1c(=O)n(C2CCC(=O)NC2=O)c2ccc(C3CN(C[C@H]4CC[C@H](n5cc6cc(NC(=O)c7cccc(C(C)(C)F)n7)c(C(F)F)cc6n5)CC4)C3)cc21` (stereo partly drawn) [I-99]: 50 to 100 nM; for `COc1cc2nn([C@H]3CC[C@H](CN4CCC(c5ccc6c(c5)n(C)c(=O)n6C5CCC(=O)NC5=O)CC4)CC3)cc2cc1NC(=O)c1cccc(C(C)(C)F)n1` (stereo partly drawn) [I-100]: less than 50 nM. Take `Cn1c(=O)n(C2CCC(=O)NC2=O)c2ccc(C3CCN(C[C@H]4CC[C@H](n5cc6cc(NC(=O)c7cccc(C(C)(C)F)n7)c(C(F)F)cc6n5)CC4)CC3)cc21` (stereo partly drawn) [I-101]: the DC50 was less than 50 nM. As for `COc1cc2nn([C@H]3CC[C@H](CN4CCN(c5ccc6c(c5)n(C)c(=O)n6C5CCC(=O)NC5=O)CC4)CC3)cc2cc1NC(=O)c1cccc(C(F)(F)F)n1` (stereo partly drawn) [I-102], the DC50 is less than 50 nM.

`Cn1c(=O)n(C2CCC(=O)NC2=O)c2cccc(C3CCN(C[C@H]4CC[C@H](n5cc6cc(NC(=O)c7cccc(C(C)(C)F)n7)c(C(F)F)cc6n5)CC4)CC3)c21` (stereo partly drawn) [I-103]: the DC50 lay in the range of 50 to 100 nM. On to `Cn1c(=O)n(C2CCC(=O)NC2=O)c2cccc(C3CN(C[C@H]4CC[C@H](n5cc6cc(NC(=O)c7cccc(C(F)(F)F)n7)c(C(F)F)cc6n5)CC4)C3)c21` (stereo partly drawn) [I-104], for which the half-maximal degradation concentration (DC50) fell in the range of 50 to 100 nM.

Take `Cn1c(=O)n(C2CCC(=O)NC2=O)c2cccc(CCC3CC4(CCN(C[C@H]5CC[C@H](n6cc7cc(NC(=O)c8cnn9cccnc89)c(C(C)(C)O)cc7n6)CC5)CC4)C3)c21` (stereo partly drawn) [I-105]: the 50% degradation concentration (DC50) was less than 50 nM. For `CN(C[C@H]1CC[C@H](n2cc3cc(NC(=O)c4cccc(C(F)(F)F)n4)c(C(F)F)cc3n2)CC1)C1CCN(c2ccc3c(c2)n(C)c(=O)n3C2CCC(=O)NC2=O)CC1` (stereo partly drawn) [I-106], the DC50 was less than 50 nM. On the same count and under the same terms, the same measure for `COc1cc2nn([C@H]3CC[C@H](CN(C)C4CCN(c5ccc6c(c5)n(C)c(=O)n6C5CCC(=O)NC5=O)CC4)CC3)cc2cc1NC(=O)c1cccc(C(F)(F)F)n1` (stereo partly drawn) [I-107]: less than 50 nM.

The experiment is the same for the next values; noted with them: OCI-LY10 cells, 24 hrs incubation, read-out: IRAK4 degradation in OCI-LY10 at 24 hrs: DC50.
`O=C1CCC(N2C(=O)c3cccc(NCCC4CC5(CCN(C[C@H]6CC[C@H](n7cc8cc(NC(=O)c9cccc(C(F)(F)F)n9)c(OC(F)F)cc8n7)CC6)CC5)C4)c3C2=O)C(=O)N1` (stereo partly drawn) [I-89]: the DC50 lay in the range of 50 to 100 nM. As to `COc1cc2nn([C@H]3CC[C@H](CN(C)[C@H]4CC[C@H](CNc5cccc6c5C(=O)N(C5CCC(=O)NC5=O)C6=O)CC4)CC3)cc2cc1NC(=O)c1cccc(C(C)(C)F)n1` (stereo partly drawn) [I-90], the 50% degradation concentration (DC50) lay in the range of 100 to 500 nM.

Turning to `COc1cc2nn([C@H]3CC[C@H](CN(C)CCCN4CCOC(CNc5cccc6c5C(=O)N(C5CCC(=O)NC5=O)C6=O)C4)CC3)cc2cc1NC(=O)c1cccc(C(C)(F)F)n1` (stereo partly drawn) [I-91], the DC50 was 50 to 100 nM. The same measure, in the same setting: the same measure for `COc1cc2nn([C@H]3CC[C@H](CN4CCC5(CC4)CC(CCNc4cccc6c4C(=O)N(C4CCC(=O)NC4=O)C6=O)C5)CC3)cc2cc1NC(=O)c1cccc(C(C)(C)F)n1` (stereo partly drawn) [I-92]: 50 to 100 nM.
